Test results from patent publication US20240254162A1, “CYCLOTHEONELLAZOLEA, AND SYNTHETIC METHOD THEREFOR, AND APPLICATION METHOD THEREOF” (The Second People's Hospital of Shenzhen(Shenzhen Institute …, priority 2022, published 2024).
Numbered stars: 1 amine (or outer) side, 2 acyl side, 3 side chain; on linkers, the order of the positions; unused ones are H or OH. Bridge positions count the residues as written; N and C are the ends. Square brackets hold non-standard residues; d marks the D form. Peptide text beside a SMILES is read from it. * marks the point of attachment. X2 = O=C(/C=C/c1csc([C@H](Cc2ccc(O)cc2)N[*:1])n1)[*:2]; X1 = CC[C@H](C)[C@H](N[*:1])C(=O)C(=O)[*:2]; Benzoyl(4-OH) = O=C(c1ccc(O)cc1)*; Cya = N[C@@H](CS(=O)(=O)O)C(=O)O; Nva = CCC[C@H](N)C(=O)O; Dap = NC[C@H](N)C(=O)O

How the values were obtained:
Format in all cases: biochemical
[1] = biological target: T1, transmembrane serine protease 2 (TMPRSS2) (Homo sapiens, UniProt O15393); assay: Inhibition effect of CA on TMPRSS2 enzyme activity (BPS Bioscience TMPRSS2 detection kit 78083, fluorescence); details: incubated at room temperature for 30 min; Ex/Em=383/455 nm; FIG. 1
T1 construct: purchased BPS Bioscience 78083
T1 sequence (O15393 whole entry): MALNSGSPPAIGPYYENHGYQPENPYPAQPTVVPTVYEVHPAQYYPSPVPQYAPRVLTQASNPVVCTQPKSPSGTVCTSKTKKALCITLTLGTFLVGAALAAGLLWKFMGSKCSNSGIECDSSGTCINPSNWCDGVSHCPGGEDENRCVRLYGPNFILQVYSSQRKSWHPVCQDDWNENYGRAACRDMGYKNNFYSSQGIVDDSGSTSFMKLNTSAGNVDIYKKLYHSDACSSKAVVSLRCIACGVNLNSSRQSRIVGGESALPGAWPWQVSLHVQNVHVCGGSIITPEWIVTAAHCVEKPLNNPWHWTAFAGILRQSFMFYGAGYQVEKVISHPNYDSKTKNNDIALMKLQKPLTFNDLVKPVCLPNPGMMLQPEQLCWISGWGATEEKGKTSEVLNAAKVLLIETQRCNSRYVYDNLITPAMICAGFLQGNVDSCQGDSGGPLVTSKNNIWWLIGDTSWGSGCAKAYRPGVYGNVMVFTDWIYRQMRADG
Procedure: • 1. Experimental materials include a TMPRSS2 detection kit (78083) of a BPS Bioscience company and CA. • 2. Experimental methods are as follows. In a black 96-well plate, a blank well group, a negative control well group and a sample well group are set, and a detection system is 50 microliters (μL). The blank well group is added with 40 μL of buffer, the negative control well group is added with 30 μL of TMPRSS2 protease and 10 μL of buffer, the sample well group is added with 30 μL of TMPRSS2 protease and 10 μL of CA solution (respectively with concentrations of 0.1 micromole per liter abbreviated as μM, 1 μM, 10 μM, 30 μM, 100 μM, 150 μM, and 200 μM), and the three groups are incubated at the room temperature for 30 min. Each well is added with 10 μL of substrate, after mixing evenly, fluorescence value of each well is immediately detected at excitation/emission (Ex/Em)=383/455 nanometers (nm), every 30 seconds, and a dynamic process within a range of 0-40 min is observed. Two different time points (T1 and T2) are selected within a linear range of the dynamic process to obtain fluorescence values (RFUT1 and RFUT2) corresponding to the time points, a slope of the fluorescence values is calculated, and the slope can be regarded as an enzyme activity of each well. […] A half inhibitory concentration (IC50) is calculated through an Origin 2021 software. • 3.

[2] = biological target: T2, mainprotease (Mpro) of SARS-COV-2 virus (Severe acute respiratory syndrome coronavirus 2, UniProt P0DTD1); assay: Inhibition effect of CA on Mpro enzyme activity (BPS Bioscience Mpro detection kit 78042-2, fluorescence); details: incubated at room temperature for 30 min; Ex/Em=360/460 nm; FIG. 2
T2 construct: Mainprotease (Mpro) of SARS-COV-2 Virus; purchased BPS Bioscience 78042-2

neutrophil elastase (NE) = biological target: T3, neutrophil elastase (NE) (Homo sapiens, UniProt P08246); assay: Inhibition effect of CA on NE protease enzyme activity (Abcam NE protease detection kit ab118971, fluorescence); details: incubated at 37° C. for 5 min; Ex/Em=400/505 nm; FIG. 3
T3 construct: purchased Abcam ab118971
T3 sequence (P08246 30-267): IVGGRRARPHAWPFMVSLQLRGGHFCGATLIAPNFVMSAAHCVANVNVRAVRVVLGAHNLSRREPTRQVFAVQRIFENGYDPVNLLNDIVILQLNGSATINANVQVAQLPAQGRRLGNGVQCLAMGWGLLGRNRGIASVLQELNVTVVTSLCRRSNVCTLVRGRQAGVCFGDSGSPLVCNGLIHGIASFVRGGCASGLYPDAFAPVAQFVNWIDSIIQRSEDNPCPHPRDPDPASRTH
Procedure: • 1. Experimental materials include a NE protease detection kit (ab118971) of an Abcam company and CA. • 2. Experimental methods are as follows. In a black 96-well plate, a blank well group, a negative control well group and a sample well group are set, and a detection system is 100 μL. The blank well group is added with 75 μL of buffer, the negative control well group is added with 50 μL of NE protease and 25 μL of buffer, the sample well group is added with 50 μL of NE protease and 25 μL of CA solution (respectively with concentrations of 0.00001 μM, 0.0001 μM, 0.001 μM, 0.003 μM, 0.01 μM and 0.1 μM), and the three groups are incubated at a temperature of 37° C. for 5 min. Each well is added with 25 μL of substrate, after mixing evenly, fluorescence value of each well is immediately detected at Ex/Em=400/505 nm, every 20 seconds, and a dynamic process within a range of 0-40 min is observed. Two different time points (T1 and T2) are selected within a linear range of the dynamic process to obtain fluorescence values (RFUT1 and RFUT2) corresponding to the time points, a slope of the fluorescence values is calculated, and the slope can be regarded as an enzyme activity of each well. A formula of the slope is slope=(RFUT2−RFUT1)/(T2−T1). […] A half inhibitory concentration (IC50) is calculated through the Origin 2021 software. • 3.

CCC[C@@H]1NC(=O)[C@@H](NC(=O)[C@H](C)NC(=O)CNC(=O)c2ccc(O)cc2)CNC(=O)[C@H](CS(=O)(=O)O)NC(=O)/C=C/c2csc(n2)[C@H](Cc2ccc(O)cc2)NC(=O)C(=O)[C@H]([C@@H](C)CC)NC1=O [CA, CyclotheonellazoleA] ({Benzoyl(4-OH)}-GA[Dap][Nva][X1][X2][Cya]; lactam 3-C)
IC50 [1]: 19.2 µM | IC50 [2]: 159 µM | IC50 (neutrophil elastase (NE)): 1 nM
